# In US20230134843A1, “TREATMENT OF STEM CELL DEFICIENCY” (OSPEDALE SAN RAFFAELE S.R.L., priority 2020, published 2023):
# “Also recorded” adds a separate entry of the source.
# Assays:
# NK1R [1] = target: T1, NK1R (Mus musculus, UniProt P30548); assay: Epithelial wound closure by corneal fluorescein staining, stem cell deficiency model (Example 2); assay type: in vivo, mice
# T1 construct: NK1R is expressed by both corneal epithelial and stem cell-like cells; from tissue; host or cells: cornea / ocular surface of live C57BL6/N mice (topical dosing in vivo)
# Excerpt: (§1) Eight-week-old male mice C57BL6/N (Charles River, Calco, Italy) (WT mice, n=18) and Tac1-deficient B6.Cg-Tac1tm1Bbm/J (Jackson Laboratories, Bar Harbor, Me., USA) (TAC1-KO mice, n=18) were used in all experiments. TAC1-KO mice are homozygous null for the Tac1 gene. […] The corneal thickness and transparency as well as the corneal nerve length are similar to C57BL/6 mice [Barbariga M, Rabiolo A, Fonteyne P, Bignami F, Rama P, Ferrari G. The effect of aging on nerve morphology and substance P expression in mouse and human corneas. Investig Ophthalmol Vis Sci 2018; 59:5329-35. https://doi.org/10.1167/iovs.18-24707.]. […]
# (§2) Every day after disepithelization, in vivo corneal photographs were taken using a digital camera (EOS 30D; Canon, Tokyo, Japan) attached to a slit-lamp microscope (Photoslitmap 40 SL-P; Zeiss, Oberkochen, Germany) to assess corneal condition. Corneal opacity was evaluated using a grading score (from 0-4; 0=completely clear, 4=completely opaque) previously described [Yoeruek E, Deuter C, Gieselmann S, Saygili O, Spitzer M S, Tatar O, et al. Long-term visual acuity and its predictors after cataract surgery in patients with uveitis. […] The percentage of green fluorescent area on the total corneal area was evaluated by analyzing images by Image J software (National Institutes of Health, Bethesda, Md., USA).
# NK1R [2] = target: T1, NK1R; assay: Corneal opacity grading score, stem cell deficiency model (Example 2); assay type: in vivo, mice
# Excerpt: as §1, §2
# [3] = Fosaprepitant 0.1 mg/mL (FOSA 0.1) topically 4 times/day for 16 days
# T1 sequence (P30548 whole entry): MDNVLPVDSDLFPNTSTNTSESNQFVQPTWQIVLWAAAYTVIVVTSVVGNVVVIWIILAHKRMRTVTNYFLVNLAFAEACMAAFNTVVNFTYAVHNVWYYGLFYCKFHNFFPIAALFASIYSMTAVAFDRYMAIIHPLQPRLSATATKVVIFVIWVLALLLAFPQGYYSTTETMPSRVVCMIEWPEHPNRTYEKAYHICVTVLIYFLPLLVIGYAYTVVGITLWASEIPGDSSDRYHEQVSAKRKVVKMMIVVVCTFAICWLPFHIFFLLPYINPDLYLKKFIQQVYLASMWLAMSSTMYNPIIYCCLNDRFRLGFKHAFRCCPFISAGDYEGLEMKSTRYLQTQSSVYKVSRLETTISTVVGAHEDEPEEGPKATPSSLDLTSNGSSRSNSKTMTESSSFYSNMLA
structure (smiles),measurement,setting,value
"C[C@@H](O[C@H]1OCCN(Cc2nc(=O)n(P(=O)(O)O)[nH]2)[C@H]1c1ccc(F)cc1)c1cc(C(F)(F)F)cc(C(F)(F)F)c1 [Fosaprepitant, [3-{[(2R,3S)-2-[(1R)-1-[3,5-bis(trifluoromethyl)phenyl]ethoxy]-3-(4-fluorophenyl)morpholin-4-yl]methyl}-5-oxo-2H-1,2,4-triazol-1-yl]phosphonic acid]",wound closure compared to WT,NK1R [1]; [3],did not show any improvement; also recorded: no improvement
same,wound closure rate compared to WT,"NK1R [1]; Fosaprepitant 1 mg/mL (FOSA 1) topically 4 times/day for 16 days, from day five, p<0.05",significant improvement; also recorded: significant faster epithelial wound closure
same,corneal opacity compared to WT,NK1R [2]; [3],did not show any improvement; also recorded: no improvement
same,corneal transparency compared to WT,"NK1R [2]; Fosaprepitant 1 mg/mL (FOSA 1) topically 4 times/day for 16 days, p<0.05",significant improvement; also recorded: better corneal transparency
